Reference: patent US20240316001A1, “USE OF PHARMACEUTICAL COMPOSITION COMPRISING CHLOROGENIC ACID IN PREPARATION OF DRUG FOR TREATING EARLY ALZHEIMER'S DISEASE” (SICHUAN JIUZHANG BIOLOGICAL SCIENCE AND TECHNOLOGY CO., LTD., priority 2021, published 2024)

What was measured:
[1] = test system: chronic cerebral hypoperfusion model rats (bilateral carotid artery ligation; simulated early AD); assay: Morris water maze space exploration experiment in chronic cerebral hypoperfusion model rats; type: in vivo, Sprague Dawley (SD) rats; details: for searching time in the quadrant of the original platform compared with the model group (in words): Morris water maze space exploration, versus model group; for Time spent in the original platform quadrant: platform removed, after the orientation navigation experiment, CGA 60 mg/kg/d i.p., 3-coumaroylquinic acid alone 0.03 mg/kg/d i.p., sodium oligomannate 100 mg/kg/d gavage, mean±SD, n=10
From the text: (§1) In this experiment, the occurrence of mild AD in humans after chronic cerebral hypoperfusion was simulated by performing bilateral carotid artery ligation in rats, and the intervention of the pharmaceutical composition according to the present invention on the learning and memory ability of these rats was observed, in order to investigate the therapeutic effect of the pharmaceutical composition according to the present invention on early AD.
(§2) 2.1. Experimental Animals: 6-8 Week Old, SPF Grade, Male Sprague Dawley (SD) Healthy Rats, Weighing 280-300 g.
(§3) A chronic cerebral hypoperfusion model was established by bilateral carotid artery ligation. Rats were acclimated to the environment for 1 week, and then fasted for 12 h and water-deprivated for 4 h before surgery. The rats were anesthetized with 0.4% pentobarbital sodium (0.5 mL/100 g i.p.), and fixed in a supine position on the operating table. Hair was removed from the skin in front of the neck. The naked skin was disinfected with iodine, and then the rats were incised in the middle of the neck. The subcutaneous superficial fascia was bluntly separated, and then the sternocleidomastoideole and sternohyoid muscle were carefully separated along both sides of the trachea, with arterial sheath visible; the bilateral common carotid arteries were separated and exposed with a glass needle, to bury the thread, and then double ligated with silk thread. The blood vessels between the two ligation points were cut off. The incision was sutured layer by layer and disinfected, followed by waiting for awakening of rats. During the operation, incandescent lamp irradiation was used to maintain the anal temperature of rats at 36.5° C.-37.5° C. After surgery, each rat was placed in a single cage to prevent suffocation.
(§4) 10 healthy SD rats with suitable body weight (within the required range) were randomly selected as the normal control group. 80 successfully modeled rats were randomly divided into 8 groups, with 10 rats in each group. They were named as follows: model control group (n=10), CGA treatment group (n=10), 3-coumaroylquinic acid treatment group (n=10), CGA+3-coumaroylquinic acid (100:0.01) treatment group (n=10), CGA+3-coumaroylquinic acid (100:0.05) treatment group (n=10), CGA+3-coumaroylquinic acid (100:0.5) treatment group (n=10), CGA+3-coumaroylquinic acid (100:1) treatment group (n=10), sodium oligomannate treatment group (n=10), and thus, there are […], along with the normal control group (n=10), for a total of 90 rats.
In this experiment, except for sodium oligomannate treatment group, which was administered by gavage, all other treatment groups were administered by intraperitoneal injection to each group of rats. […]

[2] = test system: chronic cerebral hypoperfusion model rats (bilateral carotid artery ligation; simulated early AD); assay: Morris water maze orientation navigation experiment in chronic cerebral hypoperfusion model rats; type: in vivo, Sprague Dawley (SD) rats; details: for average escape latency in Morris water maze experiment / searching distance in Morris water maze experiment: after 20 consecutive days of administration, CGA 60 mg/kg/d i.p., 3-coumaroylquinic acid alone 0.03 mg/kg/d i.p., sodium oligomannate 100 mg/kg/d gavage, mean±SD, n=10; for escape latency and searching distance of rats compared with the model group (in words): Morris water maze, over the 5-day experiment, versus model group
From the text: as §1, §2, §3, §4
In this experiment, except for sodium oligomannate treatment group, which was administered by gavage, all other treatment groups were administered by intraperitoneal injection to each group of rats. The blank group and model group were given the solvent physiological saline by intraperitoneal injection. Rats in each treatment group were administrated one week after modeling surgery. Then, after 20 consecutive days of administration, the experiment was carried out. The administration continued during the experiment. At the same time, both the blank group and the model group were given an equal amount of physiological saline. […]

| Compound | searching time in the quadrant of the original platform compared with the model group (in words) [1] | Time spent in the original platform quadrant [1] | average escape latency in Morris water maze experiment ([2]; Day 1) | searching distance in Morris water maze experiment ([2]; Day 1) | average escape latency in Morris water maze experiment ([2]; Day 2) | searching distance in Morris water maze experiment ([2]; Day 2) | average escape latency in Morris water maze experiment ([2]; Day 3) | searching distance in Morris water maze experiment ([2]; Day 3) | average escape latency in Morris water maze experiment ([2]; Day 4) | searching distance in Morris water maze experiment ([2]; Day 4) | average escape latency in Morris water maze experiment ([2]; Day 5) | searching distance in Morris water maze experiment ([2]; Day 5) | escape latency and searching distance of rats compared with the model group (in words) [2] |
| --- | --- | --- | --- | --- | --- | --- | --- | --- | --- | --- | --- | --- | --- |
| O=C(/C=C/c1ccc(O)cc1)O[C@@H]1C[C@](O)(C(=O)O)C[C@@H](O)[C@H]1O [3-coumaroylquinic acid] | almost no extension | 30.2 ± 7.8 s | 98.1 ± 16.8 s | 1127.3 ± 117.2 cm | 94.2 ± 15.3 s | 954.5 ± 119.3 cm | 81.5 ± 13.7 s | 892.6 ± 106.2 cm | 75.4 ± 16.3 s | 577.1 ± 72.5 cm | 51.8 ± 14.2 s | 407.1 ± 44.3 cm | almost no improvement |
| O=C(/C=C/c1ccc(O)c(O)c1)O[C@@H]1C[C@](O)(C(=O)O)C[C@@H](O)[C@H]1O [CGA, 3-O-caffeoylquinic acid] | almost no extension | 32.6 ± 8.5 s | 95.4 ± 15.1 s | 1125.6 ± 108.4 cm | 89.2 ± 17.5 s | 944.3 ± 102.5 cm | 75.6 ± 12.6 s | 844.8 ± 99.1 cm | 70.7 ± 14.5 s | 560.9 ± 64.2 cm | 46.3 ± 10.6 s | 395.2 ± 42.7 cm | almost no improvement |
